The nature of data set [1]: Cytotoxicity against human H9 cells after 4 days by coulter counter. The format is cell-based. Particulars: human, H9 cells; read-out: TI; call rule not given here.
Data set [2] concerns Human immunodeficiency virus 1. The data set can be described thus: Antiviral activity against HIV1 3B infected in H9 cells assessed as inhibition of viral replication by p24 antigen ELISA. Format: functional, organism-based. In general terms: An ELISA detects its analyte on a solid surface through an enzyme-linked reagent.
Data set [3] deals with KB. The data set can be described thus: Cytotoxicity against human KB cells after 72 hrs by MTT assay. Format: functional, cell-based. Particulars: for EC50: read-out: ED50 (the source's name). (In general: Tetrazolium assays rely on reduction of a dye to a coloured formazan, in cell work by metabolically active cells.)
The nature of data set [4]: Cytotoxicity against human KB1 cells after 72 hrs by MTT assay. The format is functional, cell-based. Particulars: KB1, 72 h.
A short description of data set [5]: Cytotoxicity against human KB-7d cells after 72 hrs by MTT assay. The format is functional, cell-based. Particulars: KB7D; for EC50: read-out: ED50 (the source's name).
For data set [6], the system named is KB. The data set can be described thus: Cytotoxicity against human etoposide-resistant KB cells after 72 hrs by MTT assay.
A short description of data set [7]: Inhibition of tubulin polymerization.
A short description of data set [8]: Therapeutic index, ratio of IC50 for human H9 cells to EC50 for HIV 3B. The format is cell-based. Particulars: read-out: TI.
Setting [9] is: Human immunodeficiency virus 1, 3B, H9, read-out: EC50.

Where only a bound is given, the exact number is not on record here.

`Cc1cc(=O)oc2c3c(ccc12)OC(C)(C)[C@H](OC(=O)C12CCC(C)(C(=O)O1)C2(C)C)[C@@H]3OC(=O)C12CCC(C)(C(=O)O1)C2(C)C` (some centres undefined): the selectivity ratio at 96 h in data set [1] was over 39. Also, the EC50 in data set [2] (setting [9]) was found to be 0.006 µM.
For `COc1cc2c(c3oc(=O)ccc13)[C@@H](OC(=O)C13CCC(C)(C(=O)O1)C3(C)C)[C@@H](OC(=O)C13CCC(C)(C(=O)O1)C3(C)C)C(C)(C)O2` (some centres undefined), in that order: over 15 and 0.044 µM.
On to `Cc1cn([C@H]2C[C@H](N=[N+]=[N-])[C@@H](CO)O2)c(=O)[nH]c1=O` [ZIDOVUDINE], for which the EC50 in data set [2] (setting [9]) is 0.044 µM.
`Cc1cc2ccc3c(c2oc1=O)[C@@H](OC(=O)C12CCC(C)(C(=O)O1)C2(C)C)[C@@H](OC(=O)C12CCC(C)(C(=O)O1)C2(C)C)C(C)(C)O3` (some centres undefined): the EC50 result in data set [2] (h9) was “Not Active”.
As to `COc1cc([C@@H]2c3cc4c(cc3[C@@H](Nc3ccc(C#N)cc3)[C@H]3COC(=O)[C@H]23)OCO4)cc(OC)c1O`, the IC50 (as a rule, the concentration needed to halve the response being measured) in the data set with KB [3] was determined as 0.61 µM; in data set [4], 2.7 µM; in data set [5], 5 µM; with KB [6], 4 µM.
Take `COc1cc([C@@H]2c3cc4c(cc3[C@@H](NC3=CCC5(C=C3)OCCO5)[C@H]3COC(=O)[C@H]23)OCO4)cc(OC)c1O`: the half-maximal inhibitory concentration (IC50) in the data set on KB [3] was 0.68 µM; in data set [4] it was 0.5 µM; in data set [5], 1 µM; with KB [6], 1.6 µM.
On the same counts, the results for `COc1cc([C@@H]2c3cc4c(cc3[C@@H](Nc3ccc(F)cc3)[C@H]3COC(=O)[C@H]23)OCO4)cc(OC)c1O` are 0.67 µM, 4 µM, 8.3 µM and 7.2 µM.
Turning to `Cc1cc2ccc(=O)oc2c2c1OC(C)(C)[C@H](OC(=O)C13CCC(C)(C(=O)O1)C3(C)C)[C@@H]2OC(=O)C12CCC(C)(C(=O)O1)C2(C)C` (some centres undefined), the selectivity ratio at 96 h in data set [1] is over 16. Moreover, the EC50 in data set [2] (setting [9]) was determined as 0.21 µM.
As to `CC1(C)Oc2ccc3ccc(=O)oc3c2[C@@H](OC(=O)C23CCC(C)(C(=O)O2)C3(C)C)[C@H]1OC(=O)C12CCC(C)(C(=O)O1)C2(C)C` (some centres undefined), the selectivity ratio at 96 h in data set [1] was over 16.1. For the same molecule, the EC50 in data set [2] (setting [9]) came out at 0.05 µM.
In turn, `COc1cc2c(c(OC)c1OC)-c1ccc(SC)c(=O)cc1[C@@H](OC(=O)Oc1ccncc1)CC2` gave an IC50 in data set [7] of 0.56 µM. That is a sub-micromolar value.
As for `COc1cc([C@@H]2c3cc4c(cc3[C@@H](Nc3ccc(N)cc3)[C@H]3COC(=O)[C@H]23)OCO4)cc(OC)c1O`, the half-maximal inhibitory concentration (IC50) in the data set on KB [3] turned out to be 0.59 µM; in data set [4], 3.5 µM; in data set [5] it was 7.6 µM; in the data set with KB [6] it was 2 µM.
Turning to `COc1cc2c(cc1O)[C@@H](Cc1ccc(O)cc1)NCC2`, in data set [2] (setting [9]), the EC50 came to 2.8 µM. Besides, the selectivity ratio in data set [8] was found to be 125.
For `CC1(C)C=C2[C@H]3CC[C@@H]4[C@@]5(C)CCC(=O)C(C)(C)[C@@H]5CC[C@@]4(C)[C@]3(C)CC[C@@]2(C(=O)O)CC1` [MORONIC ACID], in that order: under 0.22 µM and over 186.
Turning to `COc1cc([C@@H]2c3cc4c(cc3[C@@H](O[C@@H]3O[C@@H]5CO[C@@H](C)O[C@H]5[C@H](O)[C@H]3O)[C@H]3COC(=O)[C@H]23)OCO4)cc(OC)c1O` [ETOPOSIDE], the IC50 with KB [3] turned out to be 0.6 µM; in data set [4] it was 34.8 µM; in data set [5], 77.5 µM; with KB [6], 28.7 µM. Besides, the EC50 with KB [3] is 0.2 µM; in data set [5], 25 µM.
Take `Cc1c(CBr)c(=O)oc2c3c(ccc12)OC(C)(C)[C@H](OC(=O)C12CCC(C)(C(=O)O1)C2(C)C)[C@@H]3OC(=O)C12CCC(C)(C(=O)O1)C2(C)C` (some centres undefined): the EC50 in data set [2] (setting [9]) came out at 0.00011 µM. Moreover, the selectivity ratio in data set [8] came out at 186000.
For `C[C@]12CCC[C@]3(C(=O)OC1)[C@@H]2CC[C@@]12C[C@@H](CC[C@H]13)[C@](C)(O)C2` [NEOTRIPTERIFORDIN], in that order: 0.025 µM and 125.
`O=C(C[C@H](Cc1ccc(O)c(O)c1)C(=O)O)C1=Cc2cc(O)c(O)cc2[C@H](c2ccc(O)c(O)c2)[C@H]1CC[C@H](Cc1ccc(O)c(O)c1)C(=O)O`: the EC50 in data set [2] (setting [9]) turned out to be 1.9 µM. Also, the selectivity ratio in data set [8] came out at 33.3.
In data set [7], `COc1cc2c(c(OC)c1OC)-c1ccc(SC)c(=O)cc1C(=O)CC2` [THIOCOLCHICONE] came in with an IC50 of 0.76 µM.
On to `COc1cc2ccc(=O)oc2c2c1OC(C)(C)[C@H](OC(=O)C13CCC(C)(C(=O)O1)C3(C)C)[C@@H]2OC(=O)C12CCC(C)(C(=O)O1)C2(C)C` (some centres undefined), for which, in data set [2] (h9), the EC50 entry was “Not Active”.
Consider `COc1cc2c(c(OC)c1OC)-c1c(cc3c(c1OC)OCO3)[C@H](OC(=O)c1ccccc1)[C@@](C)(O)[C@@H](C)C2` [GOMISIN G], for which the EC50 in data set [2] (setting [9]) came out at 0.011 µM. Also, the selectivity ratio in data set [8] was determined as 600.
As to `COc1cc2c(c(OC)c1OC)-c1ccc(SC)cc1C(=O)CC2`, inhibition in data set [7] was half-maximal at 0.5 µM (IC50). In other words, the sub-micromolar range.
Consider `COC(=O)c1ccc(N[C@@H]2c3cc4c(cc3[C@@H](c3cc(OC)c(O)c(OC)c3)[C@H]3C(=O)OC[C@@H]32)OCO4)cc1`, for which the IC50 was found to be 0.84 µM with KB [3], 2.5 µM in data set [4], 7 µM in data set [5] and 3.3 µM in the data set on KB [6].
For the molecule `CC(C)(O)[C@H](O)COc1c2occc2cc2ccc(=O)oc12` [HERACLENOL], the EC50 in data set [2] (setting [9]) turned out to be 0.38 µM. Moreover, the selectivity ratio in data set [8] was 870.
In turn, `O=c1cc(-c2ccccc2F)[nH]c2ccc(N3CCCC3)cc12` yielded an IC50 in data set [7] of 0.46 µM.
Consider `COC(=O)C[C@@H]1C(=O)CC[C@H](C)C(=O)O[C@@H]2[C@@H]3[C@@H](OC(C)=O)[C@@]45O[C@@]3(C)COC(=O)c3cnccc3[C@@H](C)[C@@H](O)C(=O)O[C@@H]([C@H](OC(C)=O)[C@H](OC(C)=O)[C@@]4(COC1=O)[C@@H]2OC(C)=O)[C@]5(C)O` [TRIPTONINE B], for which the selectivity ratio in data set [8] was over 1000.
As to `COc1cc([C@@H]2c3cc4c(cc3[C@@H](Nc3ccc([N+](=O)[O-])cc3)[C@H]3COC(=O)[C@H]23)OCO4)cc(OC)c1O`, the IC50 is 0.49 µM in the data set with KB [3], 6.1 µM in data set [4], 7.7 µM in data set [5] and 3 µM in the data set on KB [6]. The EC50 in the data set on KB [3] turned out to be 0.2 mg/L; in data set [5], 2 mg/L.
Turning to `COc1c(C)c(O)c(C(=O)/C=C(\O)c2ccccc2)c(O)c1C=O`, in data set [2] (setting [9]), the EC50 worked out at 0.067 µM. For the same molecule, in data set [8], the selectivity ratio turned out to be 489.
On the same counts, the results for `CC(=O)O[C@@H]1[C@H](OC(=O)CC(C)C)c2c(ccc3ccc(=O)oc23)OC1(C)C` [SUKSDORFIN] are 1.3 µM and 40.
Regarding `OC[C@@H](O)C[C@H]1OCC2(O)c3c(cc(O)c4c3O[C@@H](c3cc(O)c(O)c(O)c3)[C@@H](O)C4)OC12O` (some centres undefined), the EC50 in data set [2] (setting [9]) stood at 4 µM. Moreover, the selectivity ratio in data set [8] was found to be 9.5.
Regarding `COc1cc([C@@H]2c3cc4c(cc3[C@@H](Nc3ccc(C(=O)N[C@@H](C)C(=O)OCc5ccccc5)cc3)[C@H]3COC(=O)[C@H]23)OCO4)cc(OC)c1O`, the results for the EC50 (with KB [3]; in data set [5]) were 0.5 mg/L and 0.25 mg/L, respectively.
As to `COc1cc([C@@H]2c3cc4c(cc3[C@@H](Nc3ccc(NC(=O)c5cc([N+](=O)[O-])cn5C)cc3)[C@H]3COC(=O)[C@H]23)OCO4)cc(OC)c1O`, the EC50 stood at 0.04 µM in the data set on KB [3] and 0.2 µM in data set [5].
For `CC(C)=CCC/C(C)=C/CC[C@@]1(C)C=Cc2c(cc(C)c(C(=O)O)c2O)O1` [DAURICHROMENIC ACID], the EC50 in data set [2] (setting [9]) is 0.015 µM. The selectivity ratio in data set [8] was determined as 3710.

(Values after ChEMBL document CHEMBL1177695, “Discovery and development of natural product-derived chemotherapeutic agents based on a medicinal chemistry approach” (J Nat Prod, 2010).)
